From patent US5477857A, “Diagnostic uses of hydrazinoadenosines” (priority 1993, dated 1995)

Experiments:
A2a (coronary) = A2a (coronary) (Cavia porcellus, UniProt P46616)
Method: An isolated guinea pig heart preparation was set up using well-known techniques. The heart was perfused with a constant flow pump through the coronary vessels with a oxygenated balanced salt solution. The coronary perfusion pressure and the EKG were measured. Under constant flow, a decrease in coronary perfusion pressure indicates dilation (A2a effect).

A1 (EKG) = target: T1, A1 (EKG) (Cavia porcellus, UniProt P47745); assay: A50 for decrease in heart rate or conduction velocity on the EKG (A1 effect) in the isolated guinea pig heart
T1 construct: An isolated guinea pig heart preparation was set up using well-known techniques; from tissue; host or cells: isolated perfused guinea pig heart
T1 sequence (P47745 1-326): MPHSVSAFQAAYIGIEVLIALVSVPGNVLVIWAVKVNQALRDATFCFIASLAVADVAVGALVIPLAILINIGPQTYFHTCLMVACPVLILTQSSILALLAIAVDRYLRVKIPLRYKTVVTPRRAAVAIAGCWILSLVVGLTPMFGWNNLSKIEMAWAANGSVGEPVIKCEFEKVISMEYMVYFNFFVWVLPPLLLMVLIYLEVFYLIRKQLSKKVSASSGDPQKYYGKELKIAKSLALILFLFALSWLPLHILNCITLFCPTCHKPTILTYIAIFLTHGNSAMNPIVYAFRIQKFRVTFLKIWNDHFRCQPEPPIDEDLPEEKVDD

[1] = tested on: circumflex coronary artery; assay: Circumflex coronary blood flow in anesthetized dog, electromagnetic flow probes; assay type: in vivo; settings: for increase in circumflex coronary blood flow: adenosine 372 μg/kg/min, Compound A 1.0 μg/kg/min
Method: An anesthetized dog was prepared for cardiovascular function testing.

[2] = Systemic blood pressure response in anesthetized dog; settings: infusion: adenosine 372 μg/kg/min, Compound A 1 μg/kg/min
Method: An anesthetized dog was prepared for cardiovascular function testing. Electromagnetic flow probes were placed on the circumflex coronary artery and the left anterior descending coronary artery. Systemic systolic and diastolic blood pressure and heart rate were also measured.

[3] = tested on: circumflex coronary artery; assay: Thallium-201 scintigram in anesthetized dogs with stenosed circumflex coronary artery; assay type: in vivo; settings: dog, adenosine 372 μg/kg/min for 6 minutes, Compound A 0.6 μg/kg/min
Source text: Dogs were anesthetized and their circumflex coronary artery was stenosed to produce a cardiac perfusion deficit.

coronary arterioles = settings: background, cited from earlier work
[4] = literature; cited from earlier work
[5] = infusion: adenosine 372 μg/kg/min, Compound A 1 μg/kg/min

Chain of A2a (coronary) (P46616 whole entry, the tested form may be a part): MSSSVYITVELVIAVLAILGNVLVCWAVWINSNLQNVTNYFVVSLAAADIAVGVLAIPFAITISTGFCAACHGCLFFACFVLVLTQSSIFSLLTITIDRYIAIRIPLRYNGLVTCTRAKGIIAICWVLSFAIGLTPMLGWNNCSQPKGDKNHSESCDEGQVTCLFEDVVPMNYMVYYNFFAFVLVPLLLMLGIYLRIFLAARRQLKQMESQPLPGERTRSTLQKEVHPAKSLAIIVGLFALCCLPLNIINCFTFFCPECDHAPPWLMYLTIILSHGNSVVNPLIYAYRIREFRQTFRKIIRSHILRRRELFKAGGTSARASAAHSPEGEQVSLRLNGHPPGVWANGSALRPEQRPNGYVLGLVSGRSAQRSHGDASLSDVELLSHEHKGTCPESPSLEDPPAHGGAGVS

Row | Compound | S[…] A1/A2a (A2a (coronary); A50 EKG (A1) over A50 coronary (A2a)) | potency relative to adenosine in causing coronary vasodilation (A2a (coronary); isolated guinea pig heart, vs adenosine) [times] | EC50 (A2a (coronary); read-out: A50 CORONARY (A2a EFFECT), isolated guinea pig heart, concentration producing a 50% maximal response) [µM] | EC50 (A1 (EKG)) [µM] | increase in circumflex coronary blood flow [1] [%] | CHANGE IN CIRCUMFLEX CORONARY FLOW [1, 5] | DURATION OF RESPONSE [2] [min] | CHANGE IN […] FLOW [1, 5] | CHANGE IN SYSTOLIC BLOOD PRESSURE [2] [%] | perfusion defect shown on thallium-201 scintigram [3] | duration of coronary blood flow effect (coronary arterioles) | heart block (coronary arterioles; particularly at doses near 1 mg/kg) | duration of significant hypotensive response [4] | reflex tachycardia [4]
1 | Nc1nc(NN=CC2CCCCC2)nc2c1ncn2[C@@H]1O[C@H](CO)[C@@H](O)[C@H]1O [Compound A] | 15,000 | 250 | 0.0002 | 3 | 500 | +500% | 15 |  |  |  |  |  |  | 
2 | Nc1ncnc2c1ncn2[C@@H]1O[C@H](CO)[C@@H](O)[C@H]1O [Adenosine, adenosine] |  |  |  |  | 300 |  | 5 | +300% | -25 | clearly showed a perfusion defect | short-lasting | even blocks (stops) the heart beat |  | 
3 | CCNC(=O)[C@H]1O[C@@H](n2cnc3c(N)nc(NCCc4ccc(CCC(=O)O)cc4)nc32)[C@H](O)[C@@H]1O [CGS 21680] |  |  |  |  |  |  |  |  |  |  |  |  | more than 24 hrs | significant reflex tachycardia
